Data on 1 compound can be found in patent publication US4654342A, “6-(cyanoguanidinophenyl)pyridazinones as cardiac stimulants” (Smith Kline & French Laboratories Ltd., priority 1984, dated 1987).

Data set [1] concerns left ventricular dp/dt max. Nature of the data set: Cardiac stimulant activity in vivo, anaesthetised cats (left ventricular dp/dt max). Also noted: species or system cat; key to Relative Duration: ***: long; **: medium; *: short. The source says:
The dose to increase left ventricular dp/dt max by 50% is given as the ED50.

The next data set deals with right ventricular strips. Nature of the data set: Cardiac stimulant activity in vitro, guinea pig ventricular strips (force of contraction). The settings on record: Cavia porcellus, 50% increase in force of contraction; guinea pig ventricular strips; read-out: EC50 × 10^-6 M. The procedure:
The compounds of formula (I) and their pharmaceutically acceptable salts are tested for cardiac stimulant activity following a procedure based on that of S. C. Verma and J. H. McNeill (J.Pharm & Exp. Therapeutics, 200, 352-362 (1977)). Guinea pigs (500-700 g) of either sex are sacrificed and the hearts are quickly removed and transferred to a dissecting dish containing oxygenated bathing fluid. While in the bathing medium, the right ventricle is cut into two strips. The strips are each suspended in a 50 ml bath containing Krebs Henseleit solution at 37° C., and the bath is bubbled with 95% oxygen and 5% carbon dioxide. The ventricular strips are electrically stimulated at a frequency of 1.0 Hz, at double the threshold voltage. A resting tension of 1.0 g is applied to the strips and the tension is kept constant by readjustment during an equilibration period of 60 minutes. The bathing fluid is frequently changed during this period. When a steady base line is obtained, a compound under test is added to the bathing fluid and a cumulative concentration response curve is plotted. The compounds for use in the present invention which were tested gave a 50% increase in the force of contraction of the ventricular strips at concentrations in the bathing fluid of less than 10^-4 molar, thus showing that they have activity as positive inotropic agents.

Another data set relates to platelets. Nature of the data set: Platelet aggregation inhibition in vitro (platelet rich plasma). The format is cell-based, normal healthy volunteers (human). The procedure: Plasma was prepared as follows. Blood from 6 normal healthy volunteers was mixed with 3.8% w/v trisodium citrate (9 parts blood: 1 part citrate). The samples were centrifuged at 150 g for 10 minutes and the supernatant platelet rich plasma (PRP) was removed. The platelet concentration in the PRP was adjusted to 300±50×10^9 /1 platelets with autologous platelet poor plasma.
25 μl aliquots of a 40 μg/ml solution of the compound of Example 1 were incubated with 225 μl aliquots of PRP in a Payton Aggregometer for 3 minutes. Control solutions, one matched to the test solution with respect to solution pH and tonicity, and another of 0.9% w/v NaCl were also studied. After 3 minutes 25 μl aliquots of adenosine diphosphate solution at a concentration of 20 μm were added to each solution. The aggregation response was recorded until complete with a maximum of 3 minutes. The procedure was repeated using as different aggregation agents: 100 μg collagen; 100 μm adrenaline or 5 mg/ml arachidonic acid instead of adenosine diphosphate.
The aggregation responses induced by the different aggregation agents were measured for the platelets from each donor. The results were assessed by visual examination of the aggregation tracing produced by the Payton aggregometer and semi-quantitatively assessed by measurement of the light transmission 3 minutes after adding the inducing agent.
Serial dilutions of this compound were prepared and tested for inhibition of adenosine diphosphate induced aggregation.

Data set [2] relates to left ventricular dp/dt max. Briefly: Cardiac stimulant activity in vivo, conscious dogs (left ventricular dp/dt max). The following applies: for minimal effective dose: Canis lupus familiaris. Also noted: species or system dog. The procedure: Oral administration caused positive inotropic responses at doses of 0.25 mg/kg and below. […] Therefore this compound is particularly beneficial with regard to `force-rate` selectivity.

Data set [3] deals with 2-pyridylethylamine-induced bronchoconstriction. Briefly: Bronchodilatation in vivo, 2-pyridylethylamine-induced bronchoconstriction. The arrangement: species or system guinea-pigs (Dunkin Hartley). The following applies: i.v. bolus one minute before challenge. The procedure: Male guinea-pigs of the Dunkin Hartley strain (530 g±6 g) were anaesthetised with Sagatal (pentobarbital sodium) (90 mg/kg i.p.). Airway resistance was measured using a modification of the classical Konzett-Rossler technique (Versuchsanordnung zu Untersuchungen an der Bronchialmuskulatur. Naunyn-Schmiedebergs Arch. Exp. Path. Pharmak., 30: pp 121-145, (1940)). A dose of 2-pyridylethylamine which gave approximately 100% increase in airway resistance was selected for i.v. administration. Bolus doses of the compound of Example 1 were administered (i.v.) one minute before the 2-pyridylethylamine challenge.

Another data set concerns hindquarters blood flow. Briefly: Vasodilator activity, anaesthetised rat hindquarters autoperfused at constant blood pressure. The class given is in vivo. The source says: The dose to increase hindquarters blood flow by 50% was 4.6 μmol/Kg.
Setting [4] is: i.v., anaesthetised rat hindquarters.

Structures are written as SMILES. Read-outs that look alike come from different tables or passages of the source.

As to `CNC(=NC#N)Nc1ccc(C2=NNC(=O)CC2C)cc1` (stereo not drawn) [Example 1, 6-[4-(N^3 -Methyl-N^2-cyanoguanidino)phenyl]-5-methyl-4,5-dihydro-3(2H)-pyridazinone], the ED50 amounted to 0.2 µmol/kg in data set [1] (Felis catus, intravenous, dose to increase left ventricular dp/dt max by 50%, anaesthetised cats) and 0.39 µmol/kg in data set [3] (Cavia porcellus, iv, read-out: ED50, dose which reduced the 2-pyridylethylamine bronchoconstriction by 50%). Moreover, the “Relative Duration” value in data set [1] (estimated in anaesthetised cats following i.v. administration) is recorded as “***”. Besides, in the data set with right ventricular strips, the EC50 came to 1.4 µM. The IC100 with platelets (Homo sapiens, Platelet, adenosine diphosphate induced aggregation, serial dilutions, read-out: concentration completely inhibiting second wave aggregation) was at least 0.5 µg/mL. For the same compound, the “inhibition of platelet aggregation induced by adenosine diphosphate” value in the data set with platelets (final concentrations of 5 μg/ml, adenosine diphosphate) is given as “inhibited platelet aggregation”. For the same compound, the “inhibition of platelet aggregation induced by adrenaline” value in the data set with platelets (final concentrations of 5 μg/ml, adrenaline) is reported as “inhibited platelet aggregation”. In addition, the “inhibition of platelet aggregation induced by arachidonic acid” value with platelets (final concentrations of 5 μg/ml, arachidonic acid) is given as “inhibited platelet aggregation”. The “inhibition of platelet aggregation induced by collagen” value in the data set with platelets (final concentrations of 5 μg/ml, collagen) is on record as “inhibited platelet aggregation”. Further, in data set [2], the “changes in blood pressure or heart rate” value was “without changes in blood pressure or heart rate”. Besides, the minimal effective dose was under 0.1 mg/kg in data set [2] (intravenous, read-out: dose increasing left ventricular dp/dt max); at most 0.25 mg/kg in data set [2] (oral, read-out: dose causing positive inotropic responses); 0.0316 µmol/kg in data set [3] (Cavia porcellus, read-out: threshold dose). The “persistence of positive inotropic responses” value in data set [2] (persisted for up to) is 9 to 12 h. Besides, the “effect on 2-pyridylethylamine-induced bronchoconstriction” value in data set [3] is “reduced the 2-pyridylethylamine-induced bronchoconstriction”. Besides, the ED (50% increase in hindquarters blood flow) in the data set on hindquarters blood flow (Rattus norvegicus, iv, anaesthetised rat, read-out: dose to increase hindquarters blood flow by 50%) stood at 4.6 µmol/kg. For the same compound, the “dose range of dose-dependent vasodilatation” value with hindquarters blood flow (setting [4]) is 1 to 10 µmol/kg. Also, the duration of activity entry in the data set on hindquarters blood flow (setting [4]) was “significant duration of activity”.
